The results in this text go back to US8604212B2, “Anti-shock agent comprising diaminotrifluoromethylpyridine derivative” (Ishihara Sangyo Kaisha, Ltd., priority 2009, dated 2013).

The assay relates to mouse models with septic shock, the onset of which was peritonitis triggered by the cecal puncture. As to the kind of experiment: Therapeutic effect on mouse models with septic shock, the onset of which was peritonitis triggered by the cecal puncture (viability test). In kind it is in vivo. Particulars: for surviving rate: female BALB/c mice. An excerpt: Therapeutic effects of N-(2-ethylsulfonylamino-5-trifluoromethyl-3-pyridyl)cylohexanecarboxamide sodium salt monohydrate (hereinafter referred to as compound 1) on mouse models with septic shock, the onset of which was peritonitis triggered by the cecal puncture, was examined.
The compound 1 was used as a drug formulation. The formulation composition (content per one vial) was as follows.
Age: 7 weeks old when purchased and 8 weeks old when tested
The mice were pre-bred for about a week after purchase and then subjected to a test at about 8 weeks old. Breeding in the entire breeding period was carried out in an isolator placed in a large animal room. Ten mice in each group were accommodated in a polycarbonate cage throughout the test period, and they were freely fed on commercially available complete feed pellet (MF, manufactured by O. B. S.) and tap water subjected to activated carbon filtration (with use of a feed water bottle) throughout the breeding period. From the mice, mice which were healthily grown during the pre-breeding period were selected. Mice were randomly selected from the above selected mice and delivered to the respective groups one by one in the order of the animal number. The animal number was put in the order of put into a cage after the grouping.
Preparation of the drug was carried out immediately before the induction operation, and administration was carried out by using the prepared liquid for administration. Japanese Pharmacopoeia 5% glucose was injected to a formulated product containing 100 mg of the compound 1 to completely dissolve the compound 1, and a liquid for administration at the maximum dose was prepared by diluting with Japanese Pharmacopoeia 5% glucose, and a liquid for administration at a medium dose and a liquid for administration at a low dose were prepared by stepwise dilution of the liquid for administration at the maximum dose with Japanese Pharmacopoeia 5% glucose. For the non-treated group, Japanese Pharmacopoeia 5% glucose as a medium alone was prepared. Immediately after the induction, 4 hours later, 8 hours later and 12 hours later, the liquid was repeatedly administered subcutaneously to the dorsal neck to maintain the blood concentration. The liquid was administered in a volume of 10 ml/kg for each group.
Mice were anesthetized with gas-oxygen-fluothane, and the corpus 8 mm from the cecal apex was ligated through an abdominal incision, one spot in the apex was punctured and transfixed with a 22 G needle, and after leakage of cecal contents was confirmed, the cecum was completely replaced in the abdomen and the abdomen was closed.
Viability test was carried out for 3 days from immediately after the induction, and the results were summarized every 24 hours.
Employing the non-treated group as a control, comparison among groups of a group given with 0.1 mg/kg of the compound 1, a group given with 1 mg/kg of the compound 1 and a group given with 10 mg/kg of the compound 1 was carried out.
Viability test results: animals which died in 0 to 24 hours were scored 1, animals which died in 24 to 48 hours were scored 2, animals which died in 48 to 72 hours were scored 3, and animals which survived 72 hours or more were scored 4, and the obtained data were used.
Comparison among groups was carried out by Shirley-Williams' multiple comparison test.

Molecules are shown by their SMILES.

For the compound `CCS(=O)(=O)Nc1ncc(C(F)(F)F)cc1NC(=O)C1CCCCC1.O.[Na]` [Compound 1, N-(2-ethylsulfonylamino-5-trifluoromethyl-3-pyridyl)cylohexanecarboxamide sodium salt monohydrate], the surviving rate (0.1 mg/kg x 4 times subcutaneous, 24 hr after induction of septic shock model) came to 20%; the surviving rate (0.1 mg/kg x 4 times subcutaneous, 48 hr after induction of septic shock model) stood at 0%; the surviving rate (0.1 mg/kg x 4 times subcutaneous, 72 hr after induction of septic shock model) is listed as 0%; the surviving rate (1 mg/kg x 4 times subcutaneous, 24 hr after induction of septic shock model) came out at 40%; the surviving rate (1 mg/kg x 4 times subcutaneous, 48 hr after induction of septic shock model) was 10%; the surviving rate (1 mg/kg x 4 times subcutaneous, 72 hr after induction of septic shock model) is given as 10%. This compound displayed a surviving rate (10 mg/kg x 4 times subcutaneous, 24 hr after induction of septic shock model) of 90%; a surviving rate (10 mg/kg x 4 times subcutaneous, 48 hr after induction of septic shock model) of 50%; a surviving rate (10 mg/kg x 4 times subcutaneous, 72 hr after induction of septic shock model) of 50%. In addition, the “improvement in the surviving rate versus non-treated group (Shirley-Williams' multiple comparison test)” value (administration of 10 mg/kg, P<0.001) is “improvement in the surviving rate with statical significance”.
